{"source": "patent US20250109127A1", "about": "“METHODS OF USE OF PHENOXYPROPYLAMINE COMPOUNDS TO TREAT DEPRESSION” (Minerva Neurosciences, Inc., priority 2013, published 2025)", "key": {"[1]": {"assay": "Pharmacokinetic study, plasma concentration on day 1 and day 14", "assay_type": "in vivo", "conditions": "day 1 and day 14 after dosing with SON-117", "excerpt": "were examined in pharmacokinetic studies.\nFIG. 34 illustrates the plasma concentration of SON-117 as a function of time on day 1 after dosing with SON-117. FIG. 35 illustrates the plasma concentration of SON-117 as a function of time on day 14 after dosing with SON˜117.\nFIG. 36 illustrates the plasma concentration of the M1 metabolite of SON-117 as a function of time on day 1 after dosing with SON-117. FIG. 37 illustrates the plasma concentration of the M1 metabolite of SON-117 as a function of time on day 14 after dosing with SON-117."}, "[2]": {"test_system": "sleep EEG parameters", "assay": "Polysomnography / sleep EEG study", "assay_type": "in vivo, human", "conditions": "escitalopram 20 mg", "method": "In this study, certain pharmacodynamic sleep parameters predictive of antidepressant activity were monitored and measured. […] Three doses of SON-117 were tested (1 mg, 3 mg, 7.5 mg). […] In an embodiment, SON-117 affected sleep. In an embodiment, SON-117 affected REM sleep.\n[…] subjects were tested in a sleep study, where 23 subjects were dosed with SON-117 in amounts of 1 mg up to 7.5 mg; 12 were given a placebo; and 8 were given escitalopram at a dose of 20 mg. Sleep was recorded in individual sound-attenuated and comfortably furnished bedrooms. During bedtime hours subjects were recumbent and the lights are turned off. The polysomnographic montage consisted of 4 EEG channels (C3A2, O1A2, C4A1, and O2A1), bilateral electro-oculograms, and 2 submental electromyograms. The different sleep parameters were derived with the Hypnos software from the visual scoring of the recordings at 30 sec epochs according to Rechtschaffen and Kales (1968) rules. Sleep continuity parameters comprise both sleep initiation and sleep maintenance variables. Sleep architecture parameters, which include REM sleep parameters, comprise stages distribution variables documenting duration and proportion of the different sleep stages and sleep profile variables that provide an outline on the time course of the different sleep stages during the recording period. All night sleep EEG spectral analysis was carried out on the C3-A2 derivation by means a fast Fourrier transform algorithm. Epoch length was 2 seconds at a sampling rate of 256 Hz and truncating error was reduced by applying a Hanning window. Sleep visual scores of each 30-second epoch was synchronised with power density values in order to allow the analysis of power density within in specific period of time such as REM and non REM sleep."}, "[3]": {"test_system": "dopamine release in the rat prefrontal cortex", "assay": "Microdialysis: dopamine release in prefrontal cortex after I.P. administration", "assay_type": "in vivo", "conditions": "3 mg/kg IP, n = 8", "method": "The aim of the study was to evaluate, using microdialysis, the effects of an intraperitoneal (I.P.) administration in rats of three different doses of SON-117 on dopamine and its metabolites, serotonin and its metabolite (5-HIAA), and norepinephrine levels in prefrontal cortex.\nThirty-two adult male Wistar rats were used for the whole study (4 groups of eight animals planned for the study, Table 1).\nSurgery was performed on rats weighing about 300 g at the beginning of the experiments. Rats were anaesthetized with Ketamine (50 mg/kg) & Xylazine (15 mg/kg) by intramuscular administration. The animals were placed in a stereotaxic apparatus in the flat-skull position at a constant setting of −3.3 mm between ear bars and the incisor bar. The animals were treated with a local anesthesic (xylocaine 1%, Astra Zeneca) and an analgesic (Temgesic, from Schering Plough, 0.05 mg/kg, s.c.). A rostrocaudal midline incision was made with a lancet to expose the dorsal skull surface. The “stereotaxic zero” was defined by the Bregma in accordance with Paxinos and Watson's atlas (1986). A hole was drilled in the skull with a drill and the meninges were pierced with a sterile needle to implant a CMA12 guide cannula which later received the dialysis probe.\nCoordinates used for implanting guide cannula in prefrontal cortex from Bregma were anteroposterior 3.7 mm, mediolateral 0.8 mm, and dorsoventral −2 mm (top of the probe was at −5 mm). The guide cannula was fixed to the skull with two stainless steel screws (1.88 mm outside diameter) anchored. An application of dental cement was added. A plastic collar allowed each animal to be tethered to a Swivel assembly of the CMA 120 awake animal system. Following surgery, rats were kept in individual cages and allowed to recover for a minimum of 3-5 days before the experimentation. The rats were handled and put in plastic bowl for 10 min at least every day to habituate the animals to their new environment for the dialysis. An I.P. administration with saline was also performed every day.\nDialysis probes (CMA12/3 mm, membrane, 20 kD cut-off, Carnegie Medicine, Stockholm, Sweden), were carefully washed before inserting into the guide cannula. The wash was performed with the artificial cerebrospinal fluid (aCSF) medium (NaCl 147 mM, KCl 2.7 mM, CaCl2 1.2 mM, MgCl2 0.85 mM) at room temperature. The dialysis system was then equilibrated at 20° C. at a perfusion rate of 1 μl/min with a Carnegie pump (CMA100). All catheters (FEP tubing, internal volume of 1.2 μl/10 cm, and tubing adaptors) used for microdialysis were treated in the same conditions.\nThe probes duly prepared were inserted into the guide cannula and the CMA120 Swivel assembly secured to the animal using a plastic collar. Flow through the dialysis probe with aCSF was maintained at a rate of 1 μl/min during the whole experimentation. The first four fractions (corresponding to 2 hours) were discarded to avoid the effects of parenchymal disturbance and to ensure that an approximate steady-state level was reached. Fractions were then collected over a period of 8.5 h during which time the animals remained quiet. The dialysates were automatically collected with an autosampler (microfraction collector CMA 140, Carnegie Medicin) and stored at −80° C. until analysis. […] Perfusion was then maintained for 7 hours with aCSF. The dialysates (30 μl) were collected into 300 μl vials, transferred into dry ice and then kept frozen (−80° C.) until analysis. Frozen samples were shipped to a partner for analysis. At the end of the microdialysis study, a PBS with colored ink was perfused through the probe in order to visualize the dialyzed area.\nCatecholamine assay: Concentrations of dopamine, DOPAC, HVA, 5-HIAA, 5-HT, and norepinephrin were determined for each sample by HPLC coupled with electrochemical detection."}, "[4]": {"test_system": "animals exposed to chronic mild stress", "assay": "Chronic mild stress (CMS) model, consumption of 1% sucrose solution", "assay_type": "in vivo, rat", "method": "Male Wistar rats (Charles River, Germany) were brought into the laboratory one month before the start of the experiment. Except as described below, the animals were singly housed with food and water freely available, and were maintained on a 12-h light/dark cycle, in a constant temperature (22±2° C.) and humidity (50±5%) conditions.\nAfter a period of 2 weeks of adaptation to laboratory and housing conditions, the animals were first trained to consume a 1% sucrose solution; training consisted of nine 1 h baseline tests in which sucrose was presented, in the home cage, following 14 h food and water deprivation; the sucrose intake was measured by weighing pre-weighed bottles containing the sucrose solution, at the end of the test. Subsequently, the sucrose consumption was monitored, under similar conditions, at weekly intervals throughout the whole experiment.\nOn the basis of their sucrose intakes in the final baseline test, the animals were divided into two matched groups. One group of animals was subjected to the chronic mild stress procedure for a period of 8 consecutive weeks. Each week of stress regime consisted of: two periods of food or water deprivation, two periods of 45 degree cage tilt, two periods of intermittent illumination (lights on and off every 2 h), two periods of soiled cage (250 ml water in sawdust bedding), one period of paired housing, two periods of low intensity stroboscopic illumination (150 flashes/min), and three periods of no stress. All stressors were 10-14 h of duration and were applied individually and continuously, day and night. Control animals were housed in separate rooms and had no contact with the stressed animals. They were deprived of food and water for the 14 h preceding each sucrose test, but otherwise food and water were freely available in the home cage.\nOn the basis of their sucrose intakes following initial 2 weeks of stress, both the stressed and the control groups were each divided further into matched subgroups (n=8), and for subsequent five weeks they received once daily intraperitoneal injections of vehicle (0.5% hydroxypropylmethylcellulose, 1 ml/kg), SON-117 (0.001, 0.01, 0.1 and 1 mg/kg) or imipramine (10 mg/kg) as the reference treatment. The drugs were administered at approx. 10:00 AM and the weekly sucrose tests were carried out 24 h following the last drug injections. After five weeks all treatments were terminated and one additional sucrose test was carried out after one week of withdrawal. Stress was continued throughout the period of treatment and withdrawal.\n(§1) After completion of the administration and withdrawal period, all control and stressed animals were placed in an open field (100 cm in diameter, 35 cm high) and allowed to explore two identical objects (cylinder-shaped object with walls painted white, 7 cm in diameter, 11 cm high) for the time required to complete 15 s of exploration of either object. For the retention trial conducted one hour later, one of the objects presented previously was replaced with a novel object (prism-shaped object with walls painted black, 5 cm wide, 14 cm high). Rats were returned to the open field for 5 min and the duration of exploration (i.e. sitting in close proximity to the objects, sniffing or touching them) of each object was measured separately by a trained observer. The data were calculated according to the following formula: [time of novel object exploration divided by time of novel plus familiar object exploration multiplied by 100]. The CMS and NOR data were analyzed by multiple analyses of variance with three between-subjects factors (stress/control, drug treatments and intakes in successive sucrose tests). The Fisher's LSD test was used for the post-hoc comparisons of means."}, "[5]": {"test_system": "animals exposed to chronic mild stress", "assay": "Novel object recognition test after CMS and treatment withdrawal", "assay_type": "in vivo, rat", "conditions": "imipramine 10 mg/kg IP, one week after withdrawal", "excerpt": "as §1"}}, "note": "Entries after “also recorded” stand apart in the source; their conditions may differ."}
{"molecule": "OCc1nnc(-c2cc3c(OC[C@@H](O)CN4CCC(c5ccc(Cl)c(Cl)c5)CC4)cccc3o2)o1", "note": "[M1]", "values": [{"measurement": "AUC, dependence on dose", "setting": "[1]", "value": "dose-proportional increase"}, {"measurement": "Cmax, dependence on dose", "setting": "[1]", "value": "dose-proportional increase"}]}
{"molecule": "CN(C)CCC[C@@]1(c2ccc(F)cc2)OCc2cc(C#N)ccc21", "note": "[escitalopram, reference compound]", "values": [{"measurement": "pharmacodynamic sleep parameters, positive comparator", "setting": "[2]", "value": "behaved as expected"}]}
{"molecule": "Cc1nnc(-c2cc3c(OC[C@@H](O)CN4CCC(c5ccc(Cl)c(Cl)c5)CC4)cccc3o2)o1.Cl", "note": "[SON117]", "values": [{"measurement": "Dopamine release, MEAN", "setting": "[3]; T0-T30 min", "value": "129.47 % of respective basal"}, {"measurement": "Dopamine release, MEAN", "setting": "[3]; T30-T1 h", "value": "110.54 % of respective basal"}, {"measurement": "Dopamine release, MEAN", "setting": "[3]; T1 h 30-T2 h", "value": "134.25 % of respective basal"}, {"measurement": "Dopamine release, MEAN", "setting": "[3]; T1 h-T1 h 30", "value": "169.31 % of respective basal"}, {"measurement": "Dopamine release, MEAN", "setting": "[3]; T2 h 30-T3 h", "value": "115.17 % of respective basal"}, {"measurement": "Dopamine release, MEAN", "setting": "[3]; T2 h-T2 h 30", "value": "106.18 % of respective basal"}, {"measurement": "Dopamine release, MEAN", "setting": "[3]; T3 h 30-T4 h", "value": "113.02 % of respective basal"}, {"measurement": "Dopamine release, MEAN", "setting": "[3]; T3 h-T3 h 30", "value": "117.50 % of respective basal"}, {"measurement": "Dopamine release, MEAN", "setting": "[3]; T4 h 30-T5 h", "value": "111.42 % of respective basal"}, {"measurement": "Dopamine release, MEAN", "setting": "[3]; T4 h-T4 h 30", "value": "126.77 % of respective basal"}, {"measurement": "Dopamine release, MEAN", "setting": "[3]; T5 h 30-T6 h", "value": "148.15 % of respective basal"}, {"measurement": "Dopamine release, MEAN", "setting": "[3]; T5 h-T5 h 30", "value": "123.35 % of respective basal"}, {"measurement": "Dopamine release, MEAN", "setting": "[3]; T6 h 30-T7 h", "value": "167.43 % of respective basal"}, {"measurement": "Dopamine release, MEAN", "setting": "[3]; T6 h-T6 h 30", "value": "131.63 % of respective basal"}, {"measurement": "Dopamine release, MEAN", "setting": "[3]; T-30 min-T0 (before administration)", "value": "96.15 % of respective basal"}, {"measurement": "Dopamine release, MEAN", "setting": "[3]; T-1 h 30-T-1 h (before administration)", "value": "104.41 % of respective basal"}, {"measurement": "Dopamine release, MEAN", "setting": "[3]; T-1 h-T-30 min (before administration)", "value": "99.29 % of respective basal"}]}
{"molecule": "CN(C)CCCN1c2ccccc2CCc2ccccc21", "note": "[imipramine, reference compound]", "values": [{"measurement": "treatment time until increase in sucrose intake in stressed animals reached statistical significance vs Week 0", "setting": "[4]; imipramine 10 mg/kg IP", "value": "four"}, {"measurement": "effect on sucrose intake one week after cessation of treatment", "setting": "[4]; imipramine 10 mg/kg IP, stressed animals", "value": "maintained"}, {"measurement": "sucrose intake in control animals, compared to vehicle", "setting": "[4]; once daily IP for five weeks, imipramine 10 mg/kg, SON-117 all doses (0.001, 0.01, 0.1 and 1 mg/kg)", "value": "no significant effect"}, {"measurement": "sucrose consumption in stressed animals, compared to vehicle", "setting": "[4]; once daily IP for five weeks, imipramine 10 mg/kg, SON-117 all four doses (0.001-1 mg/kg)", "value": "gradually increased; also recorded: fully reversed"}, {"measurement": "recognition index in control animals", "setting": "[5]", "value": "decreased"}, {"measurement": "effect against the CMS-induced deficit in recognition index", "setting": "[5]; stressed animals", "value": "ineffective"}]}
